Experimental data published in ChEMBL document CHEMBL4765365, “Design, synthesis and antitumour evaluation of pyrrolo[1,2-f]-phenanthridine and dibenzo[f,h]pyrrolo[1,2-b]isoquinoline derivatives” (Eur J Med Chem, 2020).

Columns and labels:
HCT-116 [1] = assay: Induction of cell cycle arrest in human HCT-116 cells assessed as G0 phase at 0.375 uM incubated for 36 hrs by PI staining based flow cytometry analysis (reference value: 2.5 +/- 0.8 %); format: functional
NCI-H460 [2] = assay: Induction of cell cycle arrest in human NCI-H460 cells assessed as G0 phase at 1.5 uM measured at 0 hrs by PI staining based flow cytometry analysis (reference value: 1.3 +/- 0.9 %); format: functional
HCT-116 [3] = assay: Induction of cell cycle arrest in human HCT-116 cells assessed as G1 phase at 1.5 uM incubated for 36 hrs by PI staining based flow cytometry analysis (reference value: 57.4 +/- 1.3 %); format: functional
NCI-H460 [4] = assay: Induction of apoptosis in human NCI-H460 cells assessed as early apoptotic cells at 1.5 uM incubated for 48 hrs by annexin V-FITC and PI staining based flow cytometry analysis (reference value: 2 %); format: functional
NCI-H460 [5] = assay: Induction of cell cycle arrest in human NCI-H460 cells assessed as G2/M phase at 0.75 uM incubated for 36 hrs by PI staining based flow cytometry analysis (reference value: 25 +/- 1.2 %); format: functional
NCI-H460 [6] = assay: Induction of apoptosis in human NCI-H460 cells assessed as viable cells at 1.5 uM incubated for 48 hrs by annexin V-FITC and PI staining based flow cytometry analysis (reference value: 90.1 %); format: functional; conditions: read-out: Activity
HCT-116 [7] = assay: Induction of cell cycle arrest in human HCT-116 cells assessed as G1 phase at 0.375 uM incubated for 24 hrs by PI staining based flow cytometry analysis (reference value: 55 +/- 9.8 %); format: functional
NCI-H460 [8] = assay: Induction of cell cycle arrest in human NCI-H460 cells assessed as G0 phase at 0.75 uM incubated for 12 hrs by PI staining based flow cytometry analysis (reference value: 2.9 +/- 2.4 %); format: functional
HCT-116 [9] = assay: Antitumor activity against human HCT-116 cells xenografted in nude mouse assessed as reduction in tumor size at 30 mg/kg, iv administered for 5 days and repeated cycle for 2 days interval and measured on day 24; format: functional; conditions: HCT-116, iv, 576 h, time 24 day, read-out: TGI
NCI-H460 [10] = assay: Induction of cell cycle arrest in human NCI-H460 cells assessed as G2/M phase at 0.75 uM incubated for 24 hrs by PI staining based flow cytometry analysis (reference value: 21 +/- 6.7 %); format: functional
NCI-H460 [11] = assay: Induction of apoptosis in human NCI-H460 cells assessed as early apoptotic cells at 3 uM incubated for 48 hrs by annexin V-FITC and PI staining based flow cytometry analysis (reference value: 2 %); format: functional
HCT-116 [12] = assay: Induction of cell cycle arrest in human HCT-116 cells assessed as G2/M phase at 0.75 uM measured at 0 hrs by PI staining based flow cytometry analysis (reference value: 28.9 +/- 1.4 %); format: functional
NCI-H460 [13] = assay: Induction of cell cycle arrest in human NCI-H460 cells assessed as G0 phase at 1.5 uM incubated for 36 hrs by PI staining based flow cytometry analysis (reference value: 2.8 +/- 0.7 %); format: functional
NCI-H460 [14] = assay: Induction of cell cycle arrest in human NCI-H460 cells assessed as G1 phase at 3 uM incubated for 36 hrs by PI staining based flow cytometry analysis (reference value: 57.9 +/- 3.6 %); format: functional
NCI-H460 [15] = assay: Induction of cell cycle arrest in human NCI-H460 cells assessed as G2/M phase at 3 uM incubated for 24 hrs by PI staining based flow cytometry analysis (reference value: 21 +/- 6.7 %); format: functional
NCI-H460 [16] = assay: Induction of cell cycle arrest in human NCI-H460 cells assessed as G1 phase at 0.75 uM incubated for 24 hrs by PI staining based flow cytometry analysis (reference value: 56.8 +/- 7.6 %); format: functional
CCRF-CEM = assay: Cytotoxicity against human CCRF-CEM cells assessed as reduction in cell viability incubated for 72 hrs by XTT assay; format: functional, cell-based
HCT-116 [17] = assay: Induction of cell cycle arrest in human HCT-116 cells assessed as G1 phase at 0.75 uM measured at 0 hrs by PI staining based flow cytometry analysis (reference value: 52 +/- 5.1 %); format: functional
NCI-H460 [18] = assay: Induction of cell cycle arrest in human NCI-H460 cells assessed as G0 phase at 1.5 uM incubated for 12 hrs by PI staining based flow cytometry analysis (reference value: 2.9 +/- 2.4 %); format: functional
NCI-H460 [19] = assay: Induction of apoptosis in human NCI-H460 cells assessed as necrotic cells at 1.5 uM incubated for 48 hrs by annexin V-FITC and PI staining based flow cytometry analysis (reference value: 0.7 %); format: functional
HCT-116 [20] = assay: Induction of cell cycle arrest in human HCT-116 cells assessed as G0 phase at 1.5 uM measured at 0 hrs by PI staining based flow cytometry analysis (reference value: 0.7 +/- 0.2 %); format: functional
CEM-VLB = assay: Cytotoxicity against human CEM-VLB cells assessed as reduction in cell viability incubated for 72 hrs by XTT assay; format: functional, cell-based
NCI-H460 [21] = assay: Induction of cell cycle arrest in human NCI-H460 cells assessed as G2/M phase at 3 uM incubated for 36 hrs by PI staining based flow cytometry analysis (reference value: 25 +/- 1.2 %); format: functional
HCT-116 [22] = assay: Induction of cell cycle arrest in human HCT-116 cells assessed as G1 phase at 1.5 uM incubated for 12 hrs by PI staining based flow cytometry analysis (reference value: 53.6 +/- 4.5 %); format: functional

OCc1cn2c3ccccc3c3ccccc3c2c1CO
Activity (HCT-116 [1]): 2.8% | Activity (NCI-H460 [2]): 1.4% | Activity (HCT-116 [3]): 52.3% | Activity (NCI-H460 [4]): 3.6% | Activity (NCI-H460 [5]): 20.9% | viability at 1.5 µM (NCI-H460 [6]): 82.2% | Activity (HCT-116 [7]): 46.7% | Activity (NCI-H460 [8]): 3.7% | inhibition in vivo at 30 mg/kg (HCT-116 [9]): 72% | Activity (NCI-H460 [10]): 24.1% | Activity (NCI-H460 [11]): 10.8% | Activity (HCT-116 [12]): 28.5% | Activity (NCI-H460 [13]): 3.3% | Activity (NCI-H460 [14]): 51.8% | Activity (NCI-H460 [15]): 30% | Activity (NCI-H460 [16]): 54% | IC50 (CCRF-CEM): 370 nM | Activity (HCT-116 [17]): 52% | Activity (NCI-H460 [18]): 2.6% | Activity (NCI-H460 [19]): 0.5% | Activity (HCT-116 [20]): 2.2% | IC50 (CEM-VLB): 380 nM | Activity (NCI-H460 [21]): 25.6% | Activity (HCT-116 [22]): 48.8%
